Data taken from article PMC11050823, “The Cyclic Imine Core Common to the Marine Macrocyclic Toxins Is Sufficient to Dictate Nicotinic Acetylcholine Receptor Antagonism” (Marine Drugs, 2024).
“Also recorded” adds a separate entry of the source. Where two headings read alike, the source gives them in different places. Marks after values point to notes of the source that are not given here.

Experiments:
[1] = molecular target: T1, A-AChBP (Aplysia californica, UniProt Q8WSF8); test: Scintillation proximity assay, competition against [3H]methyllycaconitine binding to A-AChBP; set-up: made in house; host or cells: stably transfected HEK293S-GnTI- cells
Method: (§1) Equilibrium dissociation constants were determined either from ratios (Kd/(koff/kon)) of rate constants determined using multiple kinetic means (kon, koff, koff/GAL) or directly from stopped-flow measurements (Kd/SFeq, Kd/SPAeq) (see Experimental Procedures).
(§2) The procedures for stable expression and purification of A- and L-AChBPs are described in Appendix D. Rate constants for association (kon) and dissociation (koff) were determined by multiple kinetic means, largely as previously described. Measurement of kon and koff values entailed the direct admixture of reactants and monitoring the quenching of AChBP native Trp fluorescence. Individual rate constants were determined from linear regression of the experimental mono-exponential decay of Trp fluorescence intensity (kobs) using the linear “approach-to-equilibrium” relationship kobs = kon[spiroimine] + koff (Equation (3)). Additional measurements of koff (koff/GAL) employed stopped-flow measurement of the rate of occupation of free AChBP binding sites by a competing ligand (gallamine, used in large excess relative to its Kd) to form a non-quenching gallamine-AChBP complex. Equilibrium dissociation constants were determined either from the ratios of rate constants (Kd/(koff/kon)), or from stopped-flow measurements of the rates of gallamine or epibatidine binding to pre-equilibrated spiroimine-AChBP complexes formed using increasing spiroimine concentrations (Kd/SFeq), or by the scintillation proximity assay (SPA) where spiroimine competition against the binding of [^3H]epibatidine (to L-AChBP) or [^3H]methyllycaconitine (to A-AChBP) was monitored at equilibrium (Kd/SPAeq). […] The time course of [^3H]ligand binding was monitored over several hours.
(§3) A- and L-AChBP, flanked with an N-terminal FLAG epitope with residues numbered (-8)[…](0), were expressed as soluble, exported proteins using synthetic cDNA and stably-transfected HEK293S-GnTI^− cells selected for G418 resistance, and cultured in Dulbecco’s modified Eagle’s medium (MediaTech CellGro, Albany, NY, USA) containing fetal bovine serum (FBS) 2% (v/v). […]
Target sequence in this assay (Q8WSF8 entry or part of it): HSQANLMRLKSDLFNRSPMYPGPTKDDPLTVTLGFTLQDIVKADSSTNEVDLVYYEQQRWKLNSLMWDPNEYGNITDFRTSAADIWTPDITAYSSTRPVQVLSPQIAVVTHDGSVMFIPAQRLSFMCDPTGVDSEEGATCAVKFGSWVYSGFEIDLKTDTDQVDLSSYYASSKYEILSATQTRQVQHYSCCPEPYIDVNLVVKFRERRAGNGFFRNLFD

[2] = molecular target: Torpedo muscle-type α1_2βγδ nAChR (Torpedo marmorata, UniProt P02711+Q6S3H8+Q6S3H9); test: Manual TEVC recording of ACh-evoked currents in Xenopus oocytes micro-transplanted with Torpedo electrocyte membranes; assay type: cell-based; details: for Hill Slope: concentration-inhibition curve, ACh 25 µM
Sequence of Torpedo muscle-type α1_2βγδ nAChR (Torpedo marmorata, UniProt P02711+Q6S3H8+Q6S3H9) (P02711 25-461): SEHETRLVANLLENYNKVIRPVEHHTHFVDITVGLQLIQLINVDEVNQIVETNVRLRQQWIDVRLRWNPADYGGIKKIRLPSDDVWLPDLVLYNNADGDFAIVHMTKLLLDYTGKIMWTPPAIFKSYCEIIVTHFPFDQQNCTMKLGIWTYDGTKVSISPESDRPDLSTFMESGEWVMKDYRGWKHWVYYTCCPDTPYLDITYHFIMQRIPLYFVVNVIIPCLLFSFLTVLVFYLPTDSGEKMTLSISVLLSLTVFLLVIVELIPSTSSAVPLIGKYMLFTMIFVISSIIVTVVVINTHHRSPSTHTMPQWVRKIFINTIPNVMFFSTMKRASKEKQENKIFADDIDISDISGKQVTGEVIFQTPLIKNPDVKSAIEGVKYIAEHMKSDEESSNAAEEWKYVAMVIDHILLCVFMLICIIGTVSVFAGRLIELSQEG
Sequence of Torpedo muscle-type α1_2βγδ nAChR (Torpedo marmorata, UniProt P02711+Q6S3H8+Q6S3H9) (Q6S3H9 18-505): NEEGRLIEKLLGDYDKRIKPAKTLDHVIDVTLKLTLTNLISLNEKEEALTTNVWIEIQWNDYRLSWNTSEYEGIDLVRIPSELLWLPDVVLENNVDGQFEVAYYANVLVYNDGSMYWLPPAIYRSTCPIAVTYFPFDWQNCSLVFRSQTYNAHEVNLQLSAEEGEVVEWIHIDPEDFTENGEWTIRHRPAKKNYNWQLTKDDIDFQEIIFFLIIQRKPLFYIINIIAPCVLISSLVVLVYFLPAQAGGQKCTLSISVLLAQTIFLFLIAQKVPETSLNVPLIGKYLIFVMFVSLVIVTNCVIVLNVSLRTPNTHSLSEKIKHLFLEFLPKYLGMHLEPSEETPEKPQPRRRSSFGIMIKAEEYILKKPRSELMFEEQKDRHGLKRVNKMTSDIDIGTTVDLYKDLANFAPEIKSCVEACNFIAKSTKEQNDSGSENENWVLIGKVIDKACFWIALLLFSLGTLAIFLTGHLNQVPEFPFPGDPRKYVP
Sequence of Torpedo muscle-type α1_2βγδ nAChR (Torpedo marmorata, UniProt P02711+Q6S3H8+Q6S3H9) (Q6S3H8 22-522): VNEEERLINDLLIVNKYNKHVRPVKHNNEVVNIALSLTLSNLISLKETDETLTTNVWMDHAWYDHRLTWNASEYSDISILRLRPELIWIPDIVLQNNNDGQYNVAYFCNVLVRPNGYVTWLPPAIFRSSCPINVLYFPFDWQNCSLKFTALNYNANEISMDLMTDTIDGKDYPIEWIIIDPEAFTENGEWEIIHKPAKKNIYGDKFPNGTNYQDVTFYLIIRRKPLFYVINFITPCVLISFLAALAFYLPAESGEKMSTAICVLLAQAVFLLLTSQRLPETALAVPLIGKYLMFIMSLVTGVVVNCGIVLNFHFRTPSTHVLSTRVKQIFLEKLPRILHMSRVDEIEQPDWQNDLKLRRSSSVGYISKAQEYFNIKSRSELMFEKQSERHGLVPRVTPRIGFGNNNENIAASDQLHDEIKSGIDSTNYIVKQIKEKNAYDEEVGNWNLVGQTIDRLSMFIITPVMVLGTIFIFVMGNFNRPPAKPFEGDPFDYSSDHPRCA
Sequence of Torpedo muscle-type α1_2βγδ nAChR (Torpedo marmorata, UniProt P02711+Q6S3H8+Q6S3H9) (Q6S3I0 25-493 partner): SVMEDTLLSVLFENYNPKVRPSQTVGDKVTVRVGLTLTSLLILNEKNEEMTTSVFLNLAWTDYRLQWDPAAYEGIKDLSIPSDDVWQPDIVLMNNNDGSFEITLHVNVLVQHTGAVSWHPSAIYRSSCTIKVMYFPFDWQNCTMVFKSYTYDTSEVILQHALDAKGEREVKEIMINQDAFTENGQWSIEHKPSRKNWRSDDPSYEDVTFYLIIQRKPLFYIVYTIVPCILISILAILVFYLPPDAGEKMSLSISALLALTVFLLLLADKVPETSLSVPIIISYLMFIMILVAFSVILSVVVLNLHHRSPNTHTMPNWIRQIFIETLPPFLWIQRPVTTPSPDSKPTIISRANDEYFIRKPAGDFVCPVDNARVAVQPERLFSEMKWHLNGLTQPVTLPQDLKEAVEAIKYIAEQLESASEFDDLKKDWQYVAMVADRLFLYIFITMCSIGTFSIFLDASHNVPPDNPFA
From the text: (§4) Functional analysis of the (±)-4 racemate and (+)-4 R and (−)-4 S enantiomers used either manual or automated two-electrode voltage-clamp (TEVC) recordings on Xenopus laevis oocytes at −60 mV holding membrane potential. The oocytes were either micro-transplanted with Torpedo α1_2βγδ-enriched electrocyte membranes or transfected with human α7 or α4β2-encoding cDNAs. When applied alone (see Experimental Procedures), none of the three spiroimines induced nAChR channel opening, thereby discarding any agonistic activity toward these nAChR subtypes. Instead, when applied together with ACh at its EC50 concentration for each nAChR subtype, all three spiroimines clearly behaved as nicotinic antagonists, whose potency depended on the receptor subtype examined (Figure 2; Table 1).
(§5) The sources for live animals and biological materials, the procedures for nAChR microtransplantation and expression in oocytes, and the procedures for manual (α1_2βγδ nAChR) and automated (α7 and α4β2 nAChRs) TEVC recording are detailed in Appendix C. […] Then, the oocyte was perfused for 45 s with the tested spiroimine at a given concentration, immediately followed by the co-application of ACh and the spiroimine at the same concentrations and times as indicated above. The oocyte was washed with Ringer’s solution, and then recovery of the ACh-evoked current was recorded.
(§6) The concentration–inhibition curves were analyzed as previously detailed using the equation I = Imax [L]^nH/(EC50^nH + [L]^nH) (Equation (1)), where I is the measured agonist-evoked current, [L] is the agonist concentration, EC50 is the agonist concentration that evoked half the maximal current (I^max), and nH is the Hill coefficient. For antagonist inhibition, current (I) values were normalized to the I^max value recorded from the same oocyte to yield the fractional (%) response data. IC50 values were established from the concentration–response curves by fitting to the equation F = 1/[1 + ([X]/IC50)^nH] (Equation (2)), where F is the fractional response obtained in the presence of the inhibitor at concentration [X], and IC50 is the inhibitor concentration reducing the ACh-evoked amplitude by half. Data analysis was performed without constraints as Log[spiroimine] versus response (three parameters), with a Hill slope ~1. Statistical significance of differences between the control and test values was assessed using either the two-tailed Student’s “t” test or the Kolmogorov–Smirnov two-sample test and p < 0.05.
(§7) Torpedo membranes containing α1_2βγδ nAChR were microtransplanted into the oocyte cytoplasm by microinjecting a membrane suspension (50 nL at 2.5 µg/µL, i.e., 125 ng total protein, in 5 mM glycine) with an electronic micro-injector (Nanoliter2000 Micro4 Controller, World Precision Instruments Inc., Hertfordshire, UK) mounted on a microscope. Human α7 and α4β2 nAChRs were expressed through microinjection, into the oocyte nucleus, of α7 mRNA and of a 1:1 (w/w) mixture of α4 and β2 cDNAs (a ratio favoring expression of the α4_3β2_2 population over the α4_2β2_3 population) (50 nL at 1 µg/µL) in a pRc/CMV expression vector (Invitrogen). Oocytes were maintained at 18 °C and TEVC recordings were performed 1–4 days later in a room with controlled temperature (20 °C).
(§8) Manual TEVC on α1_2βγδ nAChR oocytes was carried out using an OC-725B amplifier (Warner Instrument Corp., Hamden, CT, USA). Voltage and current borosilicate glass microelectrodes were filled with KCl 3 M and had 0.5–1.5 MΩ tip resistances. For data acquisition and recording, a pCLAMP-9/Digidata-1322A system (Molecular Devices, San Jose, CA, USA) was used. The oocyte recording chamber of 300 μL was superfused at a high rate (8–12 mL.min^−1) with a modified oocyte Ringer’s solution made of HEPES 5 mM pH 7.4, NaCl 100 mM, KCl 2.8 mM, and BaCl2 0.3 mM, where BaCl2 substitution to the original CaCl2 prevents secondary activation of a Ca^2+-dependent Cl^− current. […]

[3] = molecular target: T2, human neuronal α4β2 nAChR (Homo sapiens, UniProt P17787+P43681); test: Automated TEVC recording of ACh-evoked currents in Xenopus oocytes expressing human α4β2 nAChR; assay type: cell-based; details: for recovery of the ACh-evoked current after washout of bound spiroimine: 10 µM spiroimine, wash; for Hill Slope: concentration-inhibition curve, ACh 150 µM; for Hill Slope / IC50: 95% confidence interval in parentheses; for IC50: inhibition of ACh-evoked current, ACh 150 µM (EC50), −60 mV
T2 construct: expressed in transfected cells; host or cells: Xenopus laevis oocytes; cDNAs in pRc/CMV vector
T2 sequence (P43681 29-627 limits assumed): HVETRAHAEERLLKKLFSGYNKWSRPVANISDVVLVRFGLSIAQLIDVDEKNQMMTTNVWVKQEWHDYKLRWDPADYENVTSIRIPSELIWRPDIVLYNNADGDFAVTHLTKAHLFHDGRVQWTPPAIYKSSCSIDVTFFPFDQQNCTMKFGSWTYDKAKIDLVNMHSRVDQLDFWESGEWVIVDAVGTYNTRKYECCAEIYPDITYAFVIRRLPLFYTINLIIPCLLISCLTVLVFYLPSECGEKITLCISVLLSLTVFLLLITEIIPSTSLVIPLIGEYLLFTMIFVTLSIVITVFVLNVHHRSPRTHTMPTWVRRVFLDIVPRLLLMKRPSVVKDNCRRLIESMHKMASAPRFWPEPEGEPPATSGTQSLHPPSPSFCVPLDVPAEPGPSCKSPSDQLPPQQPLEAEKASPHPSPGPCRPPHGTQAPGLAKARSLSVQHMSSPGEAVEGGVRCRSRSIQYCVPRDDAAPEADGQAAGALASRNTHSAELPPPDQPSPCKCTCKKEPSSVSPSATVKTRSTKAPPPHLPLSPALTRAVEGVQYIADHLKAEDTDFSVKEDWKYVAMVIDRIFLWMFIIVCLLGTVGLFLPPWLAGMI
T2 sequence (P17787 26-502): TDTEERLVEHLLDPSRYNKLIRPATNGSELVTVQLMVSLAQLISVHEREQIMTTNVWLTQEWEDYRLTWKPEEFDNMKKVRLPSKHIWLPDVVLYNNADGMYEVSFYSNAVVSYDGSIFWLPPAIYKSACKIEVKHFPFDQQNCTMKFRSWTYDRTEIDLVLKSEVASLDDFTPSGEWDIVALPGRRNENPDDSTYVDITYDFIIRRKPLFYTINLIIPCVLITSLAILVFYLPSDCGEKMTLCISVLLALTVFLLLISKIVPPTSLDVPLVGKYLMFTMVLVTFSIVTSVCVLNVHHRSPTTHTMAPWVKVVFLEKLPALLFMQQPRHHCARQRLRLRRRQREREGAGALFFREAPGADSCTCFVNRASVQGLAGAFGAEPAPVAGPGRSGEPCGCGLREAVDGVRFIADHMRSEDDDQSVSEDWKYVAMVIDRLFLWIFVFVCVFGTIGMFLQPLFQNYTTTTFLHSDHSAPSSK
From the text: as §4, §5, §6, §7
(§9) Automated TEVC on α7 and α4β2 nAChR oocytes was performed using a HiClamp system (Multi Channel Systems, GmbH., Reutlingen, Germany). Oocytes free of follicular cells were transferred from the 96-wells of the oocyte microplate to a recording basket carrying the reference bath electrode. Oocytes were automatically impaled and clamped at a holding potential of −60 mV using borosilicate glass microelectrodes of 0.5–5 MΩ tip resistances, filled with a 1:1 (v/v) mixture of KCl 1 M and KAc 1 M. The clamped oocytes were exposed twice or thrice to ACh by incubation into a well containing ACh (at the EC50 for the assayed nAChR subtype) to obtain a control IACh peak amplitude. […]

[4] = molecular target: T3, human neuronal α7 nAChR (Homo sapiens, UniProt P36544); test: Automated TEVC recording of ACh-evoked currents in Xenopus oocytes expressing human α7 nAChR; assay type: cell-based; details: for Hill Slope: concentration-inhibition curve, ACh 100 µM; for Hill Slope / IC50: 95% confidence interval in parentheses; for IC50: inhibition of ACh-evoked current, ACh 100 µM (EC50), −60 mV
T3 construct: expressed in transfected cells; host or cells: Xenopus laevis oocytes
T3 sequence (P36544 23-502): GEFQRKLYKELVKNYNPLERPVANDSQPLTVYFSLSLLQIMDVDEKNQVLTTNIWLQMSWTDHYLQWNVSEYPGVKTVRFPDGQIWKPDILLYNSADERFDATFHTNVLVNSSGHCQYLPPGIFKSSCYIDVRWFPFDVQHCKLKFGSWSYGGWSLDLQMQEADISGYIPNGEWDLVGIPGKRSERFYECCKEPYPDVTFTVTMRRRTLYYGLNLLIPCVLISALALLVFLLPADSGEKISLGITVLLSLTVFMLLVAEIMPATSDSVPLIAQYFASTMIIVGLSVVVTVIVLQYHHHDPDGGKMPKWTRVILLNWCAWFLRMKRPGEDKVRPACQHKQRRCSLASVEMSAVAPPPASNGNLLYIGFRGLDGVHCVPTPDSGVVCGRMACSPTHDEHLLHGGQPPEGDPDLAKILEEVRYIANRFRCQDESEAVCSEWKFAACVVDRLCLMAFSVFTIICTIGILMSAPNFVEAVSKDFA
From the text: as §4, §5, §6, §7, §9

[5] = molecular target: T4, L-AChBP (Lymnaea stagnalis, UniProt P58154); test: Scintillation proximity assay, competition against [3H]epibatidine binding to L-AChBP
T4 construct: made in house; host or cells: stably transfected HEK293S-GnTI- cells
T4 sequence (P58154 20-229): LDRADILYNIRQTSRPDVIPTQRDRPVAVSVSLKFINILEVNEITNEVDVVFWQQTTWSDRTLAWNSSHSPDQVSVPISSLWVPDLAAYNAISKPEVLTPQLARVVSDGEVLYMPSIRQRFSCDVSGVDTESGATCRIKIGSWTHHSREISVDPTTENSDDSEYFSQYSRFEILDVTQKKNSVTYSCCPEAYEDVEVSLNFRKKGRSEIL
Method: as §1, §2, §3

[6] = molecular target: T4, L-AChBP; test: Stopped-flow Trp fluorescence kinetic and equilibrium binding to purified L-AChBP; details: for Kd / kon / koff: L-AChBP
Method: as §1, §2
(§10) A- and L-AChBP, flanked with an N-terminal FLAG epitope with residues numbered (-8)[…](0), were expressed as soluble, exported proteins using synthetic cDNA and stably-transfected HEK293S-GnTI^− cells selected for G418 resistance, and cultured in Dulbecco’s modified Eagle’s medium (MediaTech CellGro, Albany, NY, USA) containing fetal bovine serum (FBS) 2% (v/v). The conditioned medium was collected every 1–3 days for up to 4 weeks, supplemented with NaN3 0.02% (w/v) and stored at 4 °C. AChBPs were purified on immobilized anti-FLAG M2 antibody (Sigma-Aldrich) with elution using FLAG peptide 100 μg/mL in TRIS-HCl 50 mM pH 7.4, NaCl 150 mM, NaN3 0.02% (w/v). Purified proteins were dialyzed against the same buffer, concentrated by ultrafiltration, filtered on a 0.22 µm membrane, and stored on ice at 4 °C.

[7] = molecular target: T1, A-AChBP; test: Stopped-flow Trp fluorescence kinetic and equilibrium binding to purified A-AChBP; details: for kon / koff / Kd: A-AChBP
Method: as §1, §2, §10
Target sequence in this assay (Q8WSF8 entry or part of it): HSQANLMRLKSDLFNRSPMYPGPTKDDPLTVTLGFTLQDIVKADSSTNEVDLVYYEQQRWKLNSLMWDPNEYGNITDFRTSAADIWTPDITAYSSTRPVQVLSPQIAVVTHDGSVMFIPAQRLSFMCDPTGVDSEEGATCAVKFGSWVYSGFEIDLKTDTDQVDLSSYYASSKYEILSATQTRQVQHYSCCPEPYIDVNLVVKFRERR

[8] = system: Torpedo muscle-type α1_2βγδ nAChR; test: Manual TEVC recording of ACh-evoked currents in Xenopus oocytes micro-transplanted with Torpedo electrocyte membranes; assay type: cell-based, Torpedo marmorata; details: from IC50 values
From the text: as §4, §5, §6, §7, §8

[9] = molecular target: nicotinic acetylcholine receptors; set-up: method as in PMID 35049904; details: cited from earlier work
[10] = calculated from the rate constants, read-out: Kd/(koff/kon)
[11] = quenching of native Trp fluorescence
[12] = quenching of native Trp fluorescence, read-out: koff (converted)
[13] = stopped-flow on pre-equilibrated complexes, single experiment in triplicate, read-out: Kd/SFeq
[14] = stopped-flow with competing gallamine in large excess, read-out: koff/GAL (converted)
[15] = Kd/(koff/kon), calculated from the rate constants
[16] = Kd/SFeq, stopped-flow on pre-equilibrated complexes, single experiment in triplicate
[17] = read-out: Kd values (range of magnitude)

Compound	Kd [1]	Hill Slope [2]	recovery of the ACh-evoked current after washout of bound spiroimine [3]	Hill Slope [3]	IC50 [3]	Hill Slope [4]	IC50 [4]	Kd [5]	Kd [6, 10]	kon [6, 11]	koff [6, 12]	Kd [6, 13]	koff [6, 14]	kon [7, 11]	koff [7, 12]	koff [7, 14]	Kd [7, 15]	Kd [7, 16]	Kd [6, 17]	also measured
CC1=NCCCC12CCCCC21OCCO1 (racemic) [Racemic (±)-4, 7-methyl-1,4-dioxa-8-azadispiro[4.0.5.4]pentadec-7-ene]	2400 ± 1500 nM	~1 ^b	fast reversibility; also recorded: fast and complete	1.08 (0.86–1.29) ^b	6960 nM	0.61 (0.47–0.75) ^b	2110 nM	2600 ± 1900 nM	1700 nM	6e+07 M⁻¹ s⁻¹	103 s⁻¹	320 nM	112 s⁻¹	1.05e+08 M⁻¹ s⁻¹	300 s⁻¹	250 s⁻¹	2900 nM	4200 nM	–	recovery of the ACh-evoked current after washout of bound spiroimine ([2]; 10 µM spiroimine, washout with ACh, desensitized state): full recovery of the nicotinic current; Kd ([6]; stopped-flow on pre-equilibrated complexes, biphasic curve, read-out: Kd/SFeq, second constant from a biphasic curve): 15000 nM
CC1=NCCC[C@]12CCCCC21OCCO1 [Spiroimine (+)-4 R, 7-methyl-1,4-dioxa-8-azadispiro[4.0.5.4]pentadec-7-ene]	2300 ± 400 nM	~1 ^b	fast and complete	0.83 (0.15–1.52) ^b	9310 nM	0.78 (0.54–1.01) ^b	4880 nM	12000 ± 3000 nM	–	–	–	12000 nM	–	1.23e+08 M⁻¹ s⁻¹	267 s⁻¹	233 s⁻¹	2200 nM	3100 nM	~10000 nM	selectivity for the α1_2βγδ nAChR compared with the α4β2 subtype [8]: 25 fold; selectivity for the α1_2βγδ nAChR compared with the α7 subtype [8]: 13 fold; agonistic activity (nAChR channel opening) ([3]; spiroimine applied alone): elicited no inward current per se; higher affinity compared with the (−)-4 S enantiomer ([3]; α4β2 nAChR, from Table 1): ca. 5 fold; higher affinity compared with the (−)-4 S enantiomer ([4]; α7 nAChR, from Table 1): ca. 5 fold; higher affinity compared to enantiomer (−)-4 S ([6]; L-AChBP (text: the two AChBPs)): ca. 2 fold; higher affinity compared to enantiomer (−)-4 S ([7]; A-AChBP (text: the two AChBPs)): ca. 2 fold
CC1=NCCC[C@@]12CCCCC21OCCO1 [Spiroimine (−)-4 S, 7-methyl-1,4-dioxa-8-azadispiro[4.0.5.4]pentadec-7-ene]	2400 ± 500 nM	~1 ^b	–	0.53 (0.32–0.74) ^b	1410 nM	0.58 (0.44–0.72) ^b	1450 nM	3400 nM	410 nM	1.3e+08 M⁻¹ s⁻¹	53.3 s⁻¹	320 nM	103 s⁻¹	1.02e+08 M⁻¹ s⁻¹	433 s⁻¹	400 s⁻¹	4300 nM	5400 nM	~100 nM	recovery of the ACh-evoked current after washout of bound spiroimine ([4]; 10 µM spiroimine, wash with Ringer's solution): fast and complete
CN(C)C1CSSC1 [nereistoxin, N,N-dimethyl-1,2-dithiolan-4-amine]	–	–	–	–	–	–	–	–	–	–	–	–	–	–	–	–	–	–	–	IC50 values as nicotinic antagonist [9]: sub-millimolar
